{
  "source": "patent US12709731B2",
  "about": "“Method of producing biological material” (NTT, Inc., priority 2021, dated 2026)",
  "assay_type_in_all_cases": "cell-based",
  "key": {"[1]": {"tested_on": "Cyanidioschyzon merolae", "assay": "Test 1: color of microorganism-containing liquid after suspension culture with regulator", "conditions": "for contribution to a reduction of light-harvesting pigments: added to MA2 culture medium, 18 hours culture, judged from color in FIG. 3; for color of the microorganism-containing liquid after cultivation (FIG. 3): MA2 culture medium, light condition, 18 hours after addition", "method": "Unicellular red algae were cultured in suspension under a light condition and a regulator was added thereto. An MA2 culture medium was used as a culture medium. Cyanidioschyzon merolae were used as unicellular red algae. Dimethyl 2-oxoglutarate was used as the regulator. Then, after the regulator was added, the culture was further continued for 18 hours.\nThe above-mentioned cultivation was carried out for each case where the final concentrations of dimethyl 2-oxoglutarate were adjusted to 10, 20, 40 and 80 mmmol/L (=mM). In addition, cultivation was also carried out in a similar manner except that the addition of dimethyl 2-oxoglutarate was omitted.\nThereafter, each of microorganism-containing liquids containing unicellular red algae and the culture medium was imaged.\nIn addition, cultivation was carried out in a similar manner except that 2-oxoglutaric acid was used instead of using dimethyl 2-oxoglutarate. Thereafter, each of dispersion microorganism-containing liquids containing unicellular red algae and the culture medium was imaged.\nFIG. 3 is an image obtained by imaging the microorganism-containing liquids after cultivation. In FIG. 3, “2-OG” and “dimethyl 2-OG” represent 2-oxoglutaric acid and dimethyl 2-oxoglutarate, respectively."}, "[2]": {"tested_on": "Cyanidioschyzon merolae", "assay": "Test 3: amount of phycocyanin in microorganism-containing liquid after addition of regulator", "conditions": "final concentration 2 mmol/L; every culture time as in test 2 (0, 6, 24 hours); average of three independent tests; control increased", "method": "Cultivation was carried out in a similar manner to that in the test 2 and the amounts of phycocyanin contained in the microorganism-containing liquids were determined in every culture time. FIG. 5 is a graph showing an example of the effect of the addition of a regulator on the amount of phycocyanin. […] Furthermore, “dimethyl 2-OG” indicates the results obtained for unicellular red algae cultured by adding dimethyl 2-oxoglutarate to the culture medium as a regulator."}, "[3]": {"tested_on": "Cyanidioschyzon merolae", "assay": "Test 2: amount of chlorophyll a in microorganism-containing liquid after addition of regulator", "conditions": "final concentration 2 mmol/L; immediately before, 6 hours and 24 hours after addition; average of three independent tests; control increased", "method": "Unicellular red algae were cultured in suspension under a light condition and a regulator was added thereto. An MA2 culture medium was used as a culture medium. Cyanidioschyzon merolae were used as unicellular red algae. Dimethyl 2-oxoglutarate was used as the regulator. The regulator was added so that the final concentration of dimethyl 2-oxoglutarate was 2 mmol/L. After the regulator was added, the cultivation was further continued. Then, the amounts of chlorophyll a contained in the microorganism-containing liquids were determined immediately before the regulator was added, 6 hours after the regulator was added, and 24 hours after the regulator was added. In addition, in parallel with the cultivation, cultivation was carried out as described above in a similar manner except that no regulator was added. The amount of chlorophyll a contained in the microorganism-containing liquid was also determined in the same manner as described above. FIG. 4 is a graph showing an example of the effect of the addition of the regulator on the amounts of chlorophyll a. […] Furthermore, “dimethyl 2-OG” indicates the results obtained for unicellular red algae cultured by adding dimethyl 2-oxoglutarate to the culture medium as a regulator."}, "[4]": {"conditions": "final concentrations 10, 20, 40 and 80 mmmol/L (=mM), compared with no regulator added"}},
  "data": [
    {"smiles": "O=C(O)CCC(=O)C(=O)O", "note": "[2-oxoglutaric acid, 2-Oxoglutaric acid, reference compound]", "values": [
      {"measurement": "contribution to a reduction of light-harvesting pigments", "setting": "[1]", "result": "little contributed"},
      {"measurement": "color of the microorganism-containing liquid after cultivation (FIG. 3)", "setting": "[1]; [4]", "result": "the same color as that in the case with no regulator added"}
    ]},
    {"smiles": "COC(=O)CCC(=O)C(=O)OC", "note": "[dimethyl 2-oxoglutarate]", "values": [
      {"measurement": "amount of phycocyanin contained in the microorganism-containing liquid (FIG. 5)", "setting": "[2]", "result": "decreased according to the culture time"},
      {"measurement": "contribution to a reduction of light-harvesting pigments", "setting": "[1]", "result": "greatly contributes"},
      {"measurement": "color of the microorganism-containing liquid after cultivation (FIG. 3)", "setting": "[1]; final concentration 20 mmol/L or higher", "result": "substantially colorless"},
      {"measurement": "color of the microorganism-containing liquid after cultivation (FIG. 3)", "setting": "[1]; [4]", "result": "lighter than those of the microorganism-containing liquids with no regulator added"},
      {"measurement": "amount of chlorophyll a contained in the microorganism-containing liquid (FIG. 4)", "setting": "[3]", "result": "decreased according to the culture time"}
    ]}
  ]
}
